Reference: US10662138B2, “Herbicidal propynyl-phenyl compounds” (Syngenta Participations AG, priority 2014, dated 2020)

Assays:
Assay type in all cases: in vivo
Amaranthus retroflexus = assay: Glasshouse assay for herbicidal activity, post-emergence, AMARE; settings: Amaranthus retroflexus, 312 h, visual 13 days after application, 100%=total damage, read-out: Percentage phytotoxicity AMARE
Experimental: (§1) Seeds of a variety of test plant species were sown in standard soil ** in pots. After cultivation for one day (pre-emergence) or after 8 days cultivation (post-emergence) under controlled conditions in a glasshouse (at 24/16° C., day/night; 14 hours light; 65% humidity), the plants were sprayed with an aqueous spray solution derived from the formulation of the technical active ingredient (the test herbicide) in acetone/water (50:50) solution containing 0.5% Tween 20 (polyoxyethylene sorbitan monolaurate, CAS Reg. No. 9005-64-5). The test plants were then grown on under controlled conditions in a glasshouse (at 24/16° C., day/night; 14 hours light; 65% humidity) and watered twice daily. 13 Days after application of the test herbicide, for pre- and post-emergence, the test was evaluated visually for percentage phytotoxicity to each plant (where 100%=total damage to plant; 0%=no damage to plant). Generally, each test herbicide is only tested on 1 plant per plant species for each application rate tested and for each application timing. The “standard soil” in Biological Example 1 is usually a “sand” or “sandy loam” type of soil. Biological Example 1—Post-Emergence Application—Herbicidal Activity Results (Percentage Phytotoxicity) Dicotyledonous weeds: ABUTH=Abutilon theophrasti; AMARE=Amaranthus retroflexus. Grassy monocotyledonous weeds: SETFA=Setaria faberi; ALOMY=Alopecurus myosuroides; ECHCG=Echinochloa crus-galli; ZEAMX=Zea mays (corn, maize, e.g. volunteer corn).

Setaria faberi = assay: Glasshouse assay for herbicidal activity, post-emergence, SETFA; settings: Setaria faberi, 312 h, visual 13 days after application, 100%=total damage, read-out: Percentage phytotoxicity SETFA
Experimental: as §1

[1] = system: Zea mays (corn, maize, e.g. volunteer corn); assay: Glasshouse assay for herbicidal activity, post-emergence, ZEAMX; settings: Zea mays, 312 h, visual 13 days after application, 100%=total damage, read-out: Percentage phytotoxicity ZEAMX
Experimental: as §1

Abutilon theophrasti = assay: Glasshouse assay for herbicidal activity, post-emergence, ABUTH; settings: Abutilon theophrasti, 312 h, visual 13 days after application, 100%=total damage, read-out: Percentage phytotoxicity ABUTH
Experimental: as §1

Echinochloa crus-galli = assay: Glasshouse assay for herbicidal activity, post-emergence, ECHCG; settings: Echinochloa crus-galli, 312 h, visual 13 days after application, 100%=total damage, read-out: Percentage phytotoxicity ECHCG
Experimental: as §1

Alopecurus myosuroides = assay: Glasshouse assay for herbicidal activity, post-emergence, ALOMY; settings: Alopecurus myosuroides, 312 h, visual 13 days after application, 100%=total damage, read-out: Percentage phytotoxicity ALOMY
Experimental: as §1

Row | SMILES | pest or weed control at 30 g/ha (Amaranthus retroflexus) [%] | pest or weed control at 250 g/ha (Amaranthus retroflexus) [%] | pest or weed control at 30 g/ha (Setaria faberi) [%] | pest or weed control at 250 g/ha (Setaria faberi) [%] | pest or weed control at 30 g/ha [1] [%] | pest or weed control at 250 g/ha [1] [%] | pest or weed control at 30 g/ha (Abutilon theophrasti) [%] | pest or weed control at 250 g/ha (Abutilon theophrasti) [%] | pest or weed control at 30 g/ha (Echinochloa crus-galli) [%] | pest or weed control at 250 g/ha (Echinochloa crus-galli) [%] | pest or weed control at 30 g/ha (Alopecurus myosuroides) [%] | pest or weed control at 250 g/ha (Alopecurus myosuroides) [%]
1 | CC#Cc1ccc(C2C(=O)C3CCC(C3)C2=O)c(OC(F)F)c1 (stereo not drawn) [Compound A5] | 0 | 0 | 60 | 90 | 100 | 100 | 0 | 0 | 90 | 100 | 50 | 80
2 | CC#Cc1ccc(C2=C(OC(=O)OC)C3CCC(C3)C2=O)c(OC)c1 (stereo not drawn) [Compound P7] | – | 30 | – | 90 | – | 100 | – | 40 | – | 100 | – | 90
3 | CC#Cc1cc(OC)c(C2C(=O)C3CCC(C3)C2=O)c(OC)c1 (stereo not drawn) [Compound A7] | 0 | 0 | 100 | 100 | 100 | 100 | 0 | 10 | 100 | 100 | 90 | 100
